# Values joined by “and” are separate entries in the source; they are usually repeats but may differ in a detail not shown here. Equal values may be shown once. Marks after values point to notes of the source that are not given here.
# How the values were obtained:
# ceramidase = test: Ceramidase inhibition, enzymatic extract of PMA-activated HL60 cells, [14C]-C16 ceramide substrate; format: biochemical; conditions: 1 hour at 37° C., mean of triplicate
# Protocol: HL60 cells activated with Phorbol 12-myristate 13-acetate (PMA) at 5 nM were cultured in 175 cm^2 flasks. […] The supernatant obtained after centrifugation constituted the enzymatic extract.
# The substrate [^14C]—C16 ceramide (N-palmitoyl-D-Sphingosine) was prepared as follows:
# Evaporation of the organic phase and dissolution in distilled water. […] After evaporation and addition of Triton and cholate, the purified substrate was solubilised in distilled water.
# The reaction mixture was incubated at 37° C. during 1 hour. The reaction mixture consisted of 5 μl MgCl2 (50 mM), 25 μl enzymatic extract or buffer; 7.5 μl substrate and 12.5 μl product to be tested. The products to be tested were prepared 4× concentrated in buffer at the tested pH and contained 1% of ethanol in final.
# The quantification of enzymatic degradation of substrate was realized by measuring of radioactivity in heptane phase. […] The mixture was vortexed and centrifuged at 12 000 g 5 minutes. […] Results are expressed as the % of control.
# human keratinocytes [1] = test: MTT test, viability of human keratinocytes; format: cell-based; conditions: at the concentrations tested for involucrin
# Protocol: (§1) Human keratinocytes were seeded in growth medium (standard medium MCDB153 completed by Fetal Calf Serum at 2%). After 3-4 days of incubation at 37° C., CO2=5%, the growth medium was exchanged by standard medium MCDB153 without FCS (untreated control), and with a range of concentrations of products to be tested. After 1 day of incubation at 37° C., CO2=5%, the lack of cytotoxicity of the different product and doses tested was recorded using MTT test, and the level of involucrin was measured by an ELISA method.
# human keratinocytes [2] = test: Keratinocyte differentiation: involucrin by ELISA in primary culture of human keratinocytes; format: cell-based; conditions: for effect on the synthesis of the keratinocyte differentiation marker involucrin (in words): at the tested concentrations; for Involucrin (in % +/− SEM): 1 day incubation
# Protocol: The purpose was to evaluate the potential of the products to stimulate the differentiation of human keratinocytes into corneocytes and therefore the formation of an optimal skin barrier. The products were tested on primary culture of human keratinocytes by measuring the quantity of synthesized involucrin through an ELISA method. Involucrin is a rod shaped protein of 68 kD released by keratinocytes of early spinous layers up to granular layer of human epidermis.
# as §1
# The results are expressed in % versus control and presented as a mean+/−SEM (standard error of mean) of 2 or 3 assays (different donors of keratinocytes) in duplicate or triplicate.
smiles,measurement,setting,value
"CCCCCCCC/C=C\CCCCCCCCNCCO [N-Oleyl-ethanolamine, reference compound]",Ceramidase activity in %/control,ceramidase; dose 5 μM,98%
same,Ceramidase activity in %/control,ceramidase; dose 50 μM,94%
same,Ceramidase activity in %/control,ceramidase; dose 500 μM,79%
"CCCCCCCC/C=C\CCCCCCCCNCC(O)CO (stereo not shown) [N-oleyl-(3 amino-1,2-propanediol)]",Ceramidase activity in %/control,ceramidase; dose 5 μM,81%
same,Ceramidase activity in %/control,ceramidase; dose 50 μM,78%
same,Ceramidase activity in %/control,ceramidase; dose 500 μM,71%
"O.O.O.O.O=C([O-])CC(O)(CC(=O)[O-])C(=O)[O-].O=C([O-])CC(O)(CC(=O)[O-])C(=O)[O-].[Ca+2].[Ca+2].[Ca+2] [Tricalcium dicitrate tetrahydrate, Tricalcium citrate tetrahydrate]",viability (MTT test) of the human keratinocytes,human keratinocytes [1],not significantly changed
same,effect on keratinocytes differentiation compared with Calcium chloride,"human keratinocytes [2]; at equimolar doses of Ca2+, p<0.001 for Ca2+ 0.026 and 0.1 mM",more potent
same,effect on the synthesis of the keratinocyte differentiation marker involucrin (in words),human keratinocytes [2],significantly enhance
same,Involucrin (in % +/− SEM),"human keratinocytes [2]; dose 0.0044 mM, 0.00025 % w/v (Ca2+: 0.013 mM)",0.5 +/− 2.6^ % and 0.5 +/− 2.6%
same,Involucrin (in % +/− SEM),"human keratinocytes [2]; dose 0.0088 mM, 0.00050 % w/v (Ca2+: 0.026 mM)",31.6 +/− 2.9 *** %
same,Involucrin (in % +/− SEM),human keratinocytes [2]; dose 0.033 mM (Ca2+: 0.1 mM),73.4 +/− 3.7 *** %
same,Involucrin (in % +/− SEM),human keratinocytes [2]; tricalcium dicitrate dose 0.1 mM (Ca2+ 0.3 mM),101.7 +/− 7.2 *** %
"[Ca+2].[Cl-].[Cl-] [CaCl2, Calcium chloride, reference compound]",viability (MTT test) of the human keratinocytes,human keratinocytes [1],not significantly changed
same,Involucrin (in % +/− SEM),human keratinocytes [2]; CaCl2 dose 0.1 mM (Ca2+: 0.1 mM),21.9 +/− 5.3 ** %
same,effect on the synthesis of the keratinocyte differentiation marker involucrin (in words),human keratinocytes [2],significantly enhance
same,Involucrin (in % +/− SEM),human keratinocytes [2]; dose 0.013 mM (Ca2+: 0.013 mM),3.4 +/− 4.6^ %
same,Involucrin (in % +/− SEM),human keratinocytes [2]; dose 0.026 mM (Ca2+: 0.026 mM),−1.4 +/− 4.6 ^ %
same,Involucrin (in % +/− SEM),human keratinocytes [2]; dose 0.3 mM (Ca2+ 0.3 mM),84.4 +/− 1.9 *** %
